Experimental data taken from article PMC11597202, “Novel Thiazole-Fused [4,5-g] or [5,4-g]Quinazolin-8-ones and Their Quinazoline Analogues: Synthesis and Biological Evaluation” (Pharmaceuticals, 2024).

Biological target: T1, Haspin (Homo sapiens, UniProt Q8TF76)
T1 construct: amino acids 470 to Histone H3 peptide (1-21): (Other) 798, recombinant; host or cells: bacteria
T1 sequence (Q8TF76 470-798): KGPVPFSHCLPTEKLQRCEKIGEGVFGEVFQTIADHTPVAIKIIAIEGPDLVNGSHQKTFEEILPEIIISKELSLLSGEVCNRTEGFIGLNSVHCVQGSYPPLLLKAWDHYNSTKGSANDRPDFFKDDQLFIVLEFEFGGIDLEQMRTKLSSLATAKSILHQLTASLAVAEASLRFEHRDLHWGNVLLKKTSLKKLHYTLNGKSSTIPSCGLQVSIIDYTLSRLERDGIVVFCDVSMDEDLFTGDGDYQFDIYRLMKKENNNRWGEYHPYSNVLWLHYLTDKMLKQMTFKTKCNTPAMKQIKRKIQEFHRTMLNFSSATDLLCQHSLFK
Assay: ADP-Glo kinase inhibition assay, Haspin
Assay type: biochemical
Settings: percentage of maximum activity of the DMSO control, mean n = 2, 10 µM ATP, read-out: Residual activity Haspin; for remaining activity at 1 µM: 1 μM compound; for remaining activity at 10 µM: 10 μM compound
Method: Kinase enzymatic activities were assayed in 384-well plates using the ADP-Glo^TM assay kit (Promega, Madison, WI, USA) according to the recommendations of the manufacturer. This luminescent ADP detection assay was described by Zegzouti and co-workers and provides a homogeneous and high-throughput screening method to measure kinase activity by quantifying the amount of ADP produced during a kinase reaction. Briefly, the reactions were carried out in a final volume of 6 µL for 30 min at 30 °C in an appropriate kinase buffer (10 mM MgCl2, 1 mM EGTA, 1 mM DTT, 25 mM Tris-HCl pH 7.5, 50 µg/mL heparin), with peptide or protein as substrate in the presence of 10 µM ATP. Peptide substrates were obtained from ProteoGenix (Schiltigheim, France) or Sigma for Histone H1, Poly (L-glutamic acid–L-tyrosine) sodium salt, Casein and MBP. After that, 6 µL of ADP-Glo^TM Kinase Reagent was added to stop the kinase reaction. After an incubation time of 50 min at room temperature (rt), 12 µL of Kinase Detection Reagent was added for one hour at rt. The transmitted signal was measured using the Envision (PerkinElmer, Waltham, MA, USA) microplate luminometer and expressed as Relative Light Units (RLUs). Kinase activities are expressed as percentages of remaining kinase activities detected after treatment with 1 or 10 µM of the tested compounds. The maximum kinase activity was measured in the absence of inhibitor but with an equivalent dose of DMSO (solvent of the tested compounds).
3. Kinase inhibition assays
Kinase enzymatic activities were assayed in 384-well plates using the ADP-GloTM assay kit (Promega, Madison, WI) according to the recommendations of the manufacturer. This luminescent ADP detection assay was described by Zegzouti and co-workers and provides a homogeneous and high-throughput screening method to measure kinase activity by quantifying the amount of ADP produced during a kinase reaction. Briefly, the reactions were carried out in a final volume of 6 µl for 30 min at 30°C in appropriate kinase buffer (10 mM MgCl2, 1 mM EGTA, 1 mM DTT, 25 mM Tris-HCl pH 7.5, 50 µg/mL heparin), with peptide or protein as substrate in the presence of 10 µM ATP. Peptide substrates were obtained from ProteoGenix (Schiltigheim, France) or Sigma for Histone H1, Poly (L-glutamic acid – L-tyrosine) sodium salt, Casein and MBP. After that, 6 µL of ADP-GloTM Kinase Reagent was added to stop the kinase reaction. After an incubation time of 50 min at room temperature (rt), 12 µL of Kinase Detection Reagent was added for 1 h at rt. The transmitted signal was measured using the Envision (PerkinElmer, Waltham, MA) microplate luminometer and expressed in Relative Light Unit (RLU). Kinase activities are expressed in percentages of remaining kinase activities detected after treatment with 1 or 10 µM of the tested compounds. The maximal kinase activity is measured in the absence of inhibitor but with an equivalent dose of DMSO (solvent of the tested compounds).
Table. Human protein kinases tested in the panel: CDK9, HASPIN, PIM1, GSK3b, CK1ε, JAK3, CLK1 […]
Protein Kinase Enzyme Description Substrate1
(Family) (Working concentration)
CDK9/CyclinT Human, recombinant, expressed by Peptide:
(CMGC) baculovirus in Sf9 insect cells […]
CLK1 Human, recombinant, expressed by Peptide: […]
(CMGC) baculovirus in Sf9 insect cells (57.3µM)
DYRK1A Human, recombinant, expressed by Peptide: […]
(CMGC) baculovirus in Sf9 insect cells (10.7µM)
PIM1 Human proto-oncogene, recombinant, Peptide: […]
(CAMK) expressed in bacteria (630 µM)
GSK3 Human, recombinant, expressed by Peptide:
(CMGC) baculovirus in Sf9 insect cells […]pEDEEE 3
HASPIN Human, kinase domain, amino acids 470 to Histone H3 peptide (1-21):
(Other) 798, recombinant, expressed in bacteria […] (8µM)
CK1ε Human, recombinant, expressed by Peptide: […]pAYSITA 2
(CK1) baculovirus in Sf9 insect cells (170µM)
JAK3 Human, recombinant, expressed by Peptide: […]
(TK) baculovirus in Sf9 insect cells (94µM) […]

Structure (SMILES)	remaining activity at 1 µM [%]	remaining activity at 10 µM [%]
COC(=N)c1nc2c(ccc3c(=O)n(Cc4ccccc4)cnc32)s1 [Compound 6c, Methyl 7-benzyl-6-oxo-6,7-dihydrothiazolo[5,4-h]quinazoline-2-carbimidate]	39	12
COC(=N)c1nc2cc3ncnc(Nc4ccc(OC)cc4F)c3cc2s1 [Compound 15b, Methyl 8-[(2-fluoro-4-methoxyphenyl)amino]thiazolo[5,4-g]quinazoline-2-carbimidate]	80	88
COC(=N)c1nc2cc3c(Nc4ccc(OC)cc4F)ncnc3cc2s1 [Compound 15a, Methyl 8-[(2-fluoro-4-methoxyphenyl)amino]thiazolo[4,5-g]quinazoline-2-carbimidate]	83	66
COC(=N)c1nc2ccc3ncnc(Nc4ccc(OC)cc4F)c3c2s1 [Compound II, methyl 9-[(2-fluoro-4-methoxyphenyl)amino]thiazolo[5,4-f]quinazoline-2-carbimidate, reference compound]	31	8

Further lines, results first:

remaining activity at 1 µM [%]	remaining activity at 10 µM [%]	Structure (SMILES)
60	45	COC(=N)c1nc2ccc3ncn(Cc4ccccc4)c(=O)c3c2s1 [Compound I, methyl 8-benzyl-9-oxo-8,9-dihydrothiazolo[5,4-f]quinazoline-2-carbimidate, reference compound]
95	82	COC(=N)c1nc2cc3ncn(Cc4ccccc4)c(=O)c3cc2s1 [Compound 6b, Methyl 7-benzyl-8-oxo-7,8-dihydrothiazolo[5,4-g]quinazoline-2-carbimidate]
89	105	COC(=N)c1nc2cc3c(=O)n(Cc4ccccc4)cnc3cc2s1 [Compound 6a, Methyl 7-benzyl-8-oxo-7,8-dihydrothiazolo[4,5-g]quinazoline-2-carbimidate]
82	51	COC(=N)c1nc2ccc3c(=O)n(Cc4ccccc4)cnc3c2s1 [Compound 6d, Methyl 7-benzyl-6-oxo-6,7-dihydrothiazolo[4,5-h]quinazoline-2-carbimidate]
